Test results published in patent US20220288151A1, “COMPOSITIONS AND METHODS FOR TREATING NEUROLOGICAL DISEASES” (CARMEL HAIFA UNIVERSITY ECONOMIC CORPORATION LTD., priority 2019, published 2022).

Columns and labels:
[1] = Body weight during TMZ/vehicle i.p. injection protocol; format: in vivo; details: mice given TMZ or vehicle i.p. on three consecutive days per week for four weeks
Method: The enriched environment (groups 2 and 3) included a running wheel, two different objects, small ball, a short plastic tube, bedding, and a nest. Control animals (groups 1 and 4) were in standard cages including bedding and nest. In both conditions, three mice were housed per cage for four weeks. The mice received a TMZ/vehicle i.p. injection three times a week. On day 29, the mice received a BrdU i.p. injection and were perfused 24 h later for IHC analysis. For neurogenesis suppression, TMZ was dissolved in DMSO at 25 mg/ml and diluted to 1.25 mg/ml in sterile saline. The mice were given i.p. injections of saline +5% DMSO (vehicle) or TMZ on three consecutive days followed by four days with no injection for four weeks. On the last week, BrdU was given i.p. in 0.9% NaCl at 200 mg/kg body weight.
Sixteen (16) eEF2K double foxed mice were injected with CaMKII-Cre and GFP viruses to the DG and 3 weeks following virus injection were injected i.p TMZ and vehicle. TMZ was dissolved in DMSO at 25 mg/ml and diluted to 1.25 mg/ml in sterile saline. The mice were given i.p. injections of saline +5% DMSO (vehicle) or TMZ on three consecutive days followed by four days with no injection for four weeks. On the last week, BrdU was given i.p. in 0.9% NaCl at 200 mg/kg body weight. […]

eEF2 (pThr56eEF2) = assay: Western blot of pThr56eEF2, eEF2 and tubulin in DG and cortex samples after ketamine i.p. injection; format: in vivo, mice; details: 30 min after injection; for pThr56eEF2 normalized to total eEF2 in DG lysates: dentate gyrus
Method: Mouse brains were quickly excised and snap frozen immediately in liquid nitrogen, and then transferred to −80° C. for later use. The brains were kept in the cryostat cabin for 15 min at −15° C. before starting tissue punching. Four 500 μm thick coronal sections were sliced slowly, and the DG and cortex tissues from both hemispheres were collected by a mouse tissue puncher. The DG and cortex tissues were transferred to a new tubes and kept immediately on dry ice and then transferred to −80° C. until further use. Brain tissues were homogenized in 100 μl of ice-cold homogenization buffer (HEPES 10 mM pH 7.4, EDTA 2 mM pH 7.4, EGTA 2 mM pH 7.4, DTT 0.5 mM (all from Sigma-Aldrich, Rehovot, Israel), 1× protease inhibitor mixture (Sigma-Aldrich Rehovot, Israel); and 1× phosphatase inhibitor mixture (Sigma-Aldrich)). Protein concentration was determined by a BCA kit (CYANAGEN, PRTD1, 0500). Protein Samples were prepared in SDS sample buffer (22.22% glycerol, 22.22% SDS (20% stock), 26.66% (0.5 M Tris PH 6.8), rest DDW) and β-Mercaptoethanol, then were boiled in 100° C. for 5 min. Each sample was divided to 3 aliquots. Each aliquot was thawed on ice and used for blotting only once or twice. The samples were subjected to 10% or 12% gel SDS-PAGE (electrophoresed on Bio-Rad PAGE apparatus) and Western blot analysis. Each sample was loaded with the same amount of total protein (8-12 μg; according to antibody linearity). After transfer to a […] pore size nitrocellulose membrane or PVDF membrane, the blots were blocked with 5% bovine serum albumin (BSA) or non-fat dry milk (blotting-grade blocker, Bio-Rad) in Tris-buffered saline plus 0.5% tween-20 (TBST) at room temperature for 1 hr. The blots were incubated overnight with the suitable primary antibodies. The blots were then subjected to three 5 min washing steps in TBST, after which they were incubated with the corresponding HRP-conjugated secondary antibodies for 1 h at room temperature followed by three 10 min washing steps with TBST. Immunodetection was performed with the enhanced-chemiluminescence EZ-ECL kit (Biological Industries, Israel). The immunoblots were quantified with a CCD camera and Quantity One software (Bio-Rad).
For all tested proteins, polyacrylamide gels were freshly prepared and used on the same day. Polyacrylamide gels (10%, Tris pH 8.8) were used to analyze the expression of eEF2, pThr56eEF2, vimentin, decorin, AMPK, pThr172AMPK, KIFSA, ERK2, pERK2, pS6K1, S6K1 and tubulin. In addition, criterion gels (BIO-RAD) were used to analyze the expression of NSF protein in the different fractions. Samples containing 10 μg protein were loaded for the detection of each protein. Samples containing 8 μg protein were loaded for ERK and pERK and […] for S6K1 and pS6K1. Each immunoblot was measured relative to the background and normalized to the endogenous control (tubulin), taken from the same gel. Mature-BDNF was analyzed using 12% (Tris pH 8.8) polyacrylamide gel and was measured relative to the background and normalized to tubulin from the same gel. Samples containing 12 μg protein were loaded for mature-BDNF. The phoshpo-protein was normalized to tubulin taken from the same gel as well.

WT mice = assay: Forced swim test; format: in vivo; details: WT naive mice, ketamine 5 mg/kg i.p., 30 min before test, vs saline; last 4 min scored
Method: WT mice were injected with ketamine 5 mg/kg or saline i.p., and 30 min later together with the CaMKII Cre/GFP-injected mice were all subjected to the forced swim test (FST). The mice were placed in a 5-liter transparent glass beaker containing 4-liter warm water at 24° C. The mice were video recorded for 6 min. The last 4 min were manually scored for immobility. Total immobility time (in seconds) is presented in the results.

[2] = ketamine 5 mg/kg i.p. vs control, cortex
[3] = ketamine 5 mg/kg i.p. vs saline

Cn1nnc2c(C(N)=O)ncn2c1=O [TMZ, Temozolomide]
body weight throughout the experiment [1]: maintained normal body weight

CNC1(c2ccccc2Cl)CCCCC1=O (stereo not shown) [ketamine]
eEF2 protein level normalized to tubulin in cortex tissue (eEF2 (pThr56eEF2); [2]): no change in eEF2 protein level
pT56eEF2 normalized to eEF2 protein in cortex tissue (eEF2 (pThr56eEF2); [2]): reduces pT56eEF2 levels
eEF2 protein levels normalized to tubulin (DG samples) (eEF2 (pThr56eEF2); [3]): no change in eEF2 protein levels
pThr56eEF2 normalized to total eEF2 in DG lysates (eEF2 (pThr56eEF2); [3]): peEF2 levels were reduced
pThr56eEF2 normalized to total eEF2 in DG lysates (eEF2 (pThr56eEF2); ketamine 5 mg/kg i.p. vs saline, listed as Ketamine): induces eEF2 dephosphorylation
immobility time in forced swim test (WT mice): significantly lower immobility time
